Patent US11083737B1, “Methods of administering deflazacort therapy” (PTC Therapeutics, Inc., priority 2016, dated 2021)

What was measured:
[1] = Phase 1 open label pharmacokinetic study of oral deflazacort tablets (0.9 mg/kg/day, 8 days) in children and adolescents with DMD; type: in vivo, human; details: for geometric mean terminal elimination half-life: Day 1; for time by which plasma concentrations were quantifiable (first post-dose sample): all children and adolescents, Days 1 and 8
Protocol: FIG. 1 is a line graph illustrating mean plasma 21-desDFZ (active deflazacort metabolite) concentration (ng/mL; y-axis) vs. time (hours; x-axis) overlaid by study population on Day 8 (linear scale; circles=adolescent; triangles=child). Children (ages 5-11, inclusive) and adolescents (ages 12-16, inclusive) were administered the weight-based regimen of 0.9 mg/kg/day deflazacort orally once daily for 8 days. Blood samples were collected through eight hours post-dose. Blood samples were processed to plasma and concentrations of 21-desDFZ were measured using validated bioanalytical assays.
Pharmacokinetic analysis was performed as part of an open label, Phase 1 single-period study. Twenty-six (26) male DMD subjects were enrolled, consisting of children (ages 4 up to 12) and adolescents (ages 12 to 16, inclusive) with at least 12 subjects between the ages of 4 and 12 (children). The primary objective of the study was characterization of the single-dose and steady-state PK of deflazacort and its active deflazacort metabolite (21-desDFZ). The characterization of the PK of the 21-desDFZ metabolite 6β-OH-21-desDFZ was included as a secondary outcome. A total of 24 subjects (16 children and 8 adolescents) received deflazacort tablets (0.9 mg/kg/day) for 8 days. Blood samples for PK profiles were collected on Days 1 and 8. All 24 subjects who completed the study had sufficient data to use in the PK analysis. Plasma 21-desDFZ concentrations were quantifiable by the time of the first post-dose sample collection (0.5 hours) in all children and adolescents on Days 1 and 8. Plasma 21-desDFZ concentrations remained above the limit of quantification in most subjects over the 8-hour sampling window on both study days.

[2] = Applicants' clinical observation of deflazacort in ambulatory and non-ambulatory DMD patients; type: in vivo, human; details: as early as six weeks after treatment initiation, preserved up to 24-months
[3] = Day 1, deflazacort 0.9 mg/kg/day orally
[4] = Day 8, deflazacort 0.9 mg/kg/day orally
[5] = Days 1 and 8, deflazacort 0.9 mg/kg/day orally
[6] = after a single oral dose of deflazacort and at steady-state

SMILES	geometric mean Cmax, adolescents relative to children [1, 3]	geometric mean Cmax, adolescents relative to children [1, 4] [fold]	geometric mean AUCinf, adolescents relative to children [1, 5]	geometric mean AUClast, adolescents relative to children [1, 5]	geometric mean terminal elimination half-life ([1]; adolescents) [h]	time by which plasma concentrations were quantifiable (first post-dose sample) [1] [h]	geometric mean terminal elimination half-life ([1]; children) [h]	mean plasma concentration in children as percent of that observed in adolescents ([1]; about one hour following administration, Day 8, deflazacort 0.9 mg/kg/day orally) [%]	clearance (CL/F), children vs adolescents [1, 6]	volume of distribution (Vd/F), children vs adolescents [1, 6]	muscle strength in ambulatory and non-ambulatory patients [2]
CC1=N[C@]2(C(=O)CO)[C@@H](C[C@H]3[C@@H]4C[C@@H](O)C5=CC(=O)C=C[C@]5(C)[C@H]4[C@@H](O)C[C@@]32C)O1 [6β-OH-21-desDFZ]	roughly 1.25 fold	~1.30	roughly 1.25 Fold	roughly 1.25 Fold	1.72	≤ 0.5	1.63	–	–	–	–
CC1=N[C@]2(C(=O)CO)[C@@H](C[C@H]3[C@@H]4CCC5=CC(=O)C=C[C@]5(C)[C@H]4[C@@H](O)C[C@@]32C)O1 [21-desDFZ, 21-desacetyldeflazacort]	almost double	1.5	–	–	1.34	≤ 0.5	1.17	67	no differences	no differences	–
CC(=O)OCC(=O)[C@@]12N=C(C)O[C@@H]1C[C@H]1[C@@H]3CCC4=CC(=O)C=C[C@]4(C)[C@H]3[C@@H](O)C[C@@]12C [deflazacort, (11β,16β)-21-(acetyloxy)-11-hydroxy-2′-methyl-5′H-pregna-1,4-dieno[17,16-d]oxazole-3,20-dione]	–	–	–	–	–	–	–	–	–	–	improves muscle strength
